Measured values reported in patent US4314028A, “Fermentation process for producing tallysomycin compounds” (priority 1980, dated 1982).

What was measured:
Lewis lung carcinoma = assay: Antitumor activity in mice, Lewis lung carcinoma; type: in vivo, BDF1 mice; details: for Antitumor activity Lewis lung (ED125): once daily 11 days, dose giving T/C survival of 125%; for Antitumor activity Lewis lung (ED125) / Antitumor therapeutic index Lewis Lung: copper-chelated form unless otherwise stated; for Antitumor therapeutic index Lewis Lung: single dose LD50/ED125
Excerpt: The antitumor activity of the tallysomycin derivatives was examined in four experimental tumor systems in mice. Lymphocytic leukemia P388 and Lewis lung carcinoma were implanted intraperitoneally into BDF1 mice of either sex at an inoculum size of 3×10^5 and 5×10^5 cells per mouse, respectively. Sarcoma 180 ascites tumor was inoculated intraperitoneally into male dd-strain mice with […] per mouse. Melanotic melanoma B16 was implanted subcutaneously into BDF1 mice with 5×10^5 cells per mouse. Twenty-four hours after the implantation of tumor cells, graded doses of test compounds were administered to mice intraperitoneally in an injection volume of 0.2 ml. per 10 grams of body weight. Test compounds were given once daily for 9 days (qd 1→9 schedule) except for the mice inoculated with Lewis lung carcinoma which were treated for 11 days (qd 1→11). Death or survival of the treated and non-treated (control) animals was recorded daily during the observation period of 45 days after the implantation of tumor cells, and the median survival time was calculated for each of the test (T) and control (C) groups. […] The actual dose giving a T/C of 125% was estimated by linear regression analysis and defined as the effective dose 125 or ED125. The effective dose 150 (ED150) was employed for the evaluation of antitumor effect against Sarcoma 180. In the B16 melanoma experiment the tumor size was measured on day 16 after tumor inoculation, and the dose giving 50% inhibition of tumor growth (ID50) was calculated from regression lines.
The antitumor therapeutic index was calculated for each derivative from the ratio of toxicity and antitumor activity.

Sarcoma 180 = assay: animal or person; type: in vivo, dd-strain mice; details: for Antitumor activity S180 (ED150): once daily 9 days, effective dose 150, survival; for Antitumor activity S180 (ED150) / Antitumor therapeutic index S180: copper-chelated form unless otherwise stated; for Antitumor therapeutic index S180: single dose LD50/ED150
In short: (§1)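 P388 (3×10^5 cells) and Lewis lung (5×10^5) i.p. in BDF1 mice, B16 (5×10^5) s.c. in BDF1, Sarcoma 180 ([…]) i.p. in male dd mice. ED125 (Sarcoma 180 ED150) from median-survival T/C, 45 days; B16 ID50 from day-16 tumor size.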

Melanotic melanoma B16 = assay: Antitumor activity in mice, melanotic melanoma B16; type: in vivo, BDF1 mice; details: copper-chelated form unless otherwise stated; for Antitumor activity B16 (ID50): ip, once daily 9 days, 50% inhibition of tumor growth, day 16, 23040 min; for Antitumor therapeutic index B16: single dose LD50/ID50
In short: as §1

[1] = Subacute toxicity, multiple dose LD50; type: in vivo, dd mice; details: ip, once daily 9 days, 30 days observation; copper-chelated form unless otherwise stated
Experimental: (§2) Graded doses of test compounds were administered intraperitoneally to groups of dd mice. The injection was given one time only or once daily for 9 consecutive days. Death or survival of the animals was recorded for 30 days after the last dose of test compound to calculate the single or multiple median lethal dose (LD50).

[2] = system: Mycobacterium smegmatis strain M6-3; assay: Relative antibacterial potency, paper-disc agar diffusion method; type: cell-based; details: relative to tallysomycin A standard=1000 mcg/mg
Experimental: The relative antibacterial potencies (tallysomycin A standard=1000 mcg/mg) of the tallysomycin derivatives were determined by the paper-disc agar diffusion method using Mycobacterium smegmatis strain M6-3 as the assay organism.

[3] = system: Bacillus subtilis PCI 219; assay: MIC, two-fold agar dilution method; type: cell-based; details: nutrient agar
In short: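 Agar dilution (2-fold series) on nutrient agar (bacteria) or Sabouraud agar (fungi).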

Sarcina lutea PCI1001 = assay: MIC, two-fold agar dilution method; type: cell-based; details: nutrient agar
In short: (§3)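 MICs were determined by serial two-fold dilution in agar. The bacterial strains (S. aureus Smith, Mycobacterium 607, Sarcina lutea PCI1001) were grown on nutrient agar, and Aspergillus fumigatus IAM 2593 on Sabouraud agar.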

[4] = system: Candida albicans IAM 4888; assay: MIC, two-fold agar dilution method; type: cell-based; details: Sabouraud agar
In short: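 Compounds are diluted two-fold through agar plates: Sabouraud medium for the fungus, nutrient medium for the bacterial strains, including the acid-fast Mycobacterium 607. Organisms are then applied and the minimum inhibitory concentration is recorded.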

Mycobacterium 607 = assay: MIC, two-fold agar dilution method; type: cell-based; details: nutrient agar
In short: as §3

[5] = system: Staphylococcus aureus Smith; assay: MIC, two-fold agar dilution method; type: cell-based; details: nutrient agar
In short: as §3

[6] = system: Aspergillus fumigatus IAM 2593; assay: MIC, two-fold agar dilution method; type: cell-based; details: Sabouraud agar
In short: as §3

Proteus mirabilis A9554 = assay: MIC, two-fold agar dilution method; type: cell-based; details: nutrient agar
In short: (§4)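 Two-fold agar dilution; nutrient agar for bacteria, Sabouraud agar for A. fumigatus. MIC = lowest inhibitory concentration.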

Escherichia coli NIHJ = assay: MIC, two-fold agar dilution method; type: cell-based; details: nutrient agar
In short: as §4

[7] = system: Lymphocytic leukemia P388; assay: animal or person; type: in vivo, BDF1 mice; details: for Antitumor activity P388 (ED125): ip, once daily 9 days, dose giving T/C survival of 125%; for Antitumor activity P388 (ED125) / Antitumor therapeutic index P388: copper-chelated form unless otherwise stated; for Antitumor therapeutic index P388: single dose LD50/ED125
In short: as §1

[8] = system: lysogenic bacterium E. coli W1709 (λ); assay: Prophage induction of lysogenic bacterium (ILB activity); type: cell-based; details: t/c ratio of plaque counts greater than 3.0
In short: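 Plaques counted on agar plates containing test compound and on control plates, following Lein et al. A test/control plaque ratio above 3.0 counted as significant. Value given as the minimum inducible concentration.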

[9] = Acute toxicity, single dose LD50; type: in vivo, dd mice; details: ip, 30 days observation, copper-chelated form unless otherwise stated
Experimental: as §2

malignant tumors = assay: Initial studies using experimental animals: antitumor activity; type: in vivo; details: broad spectrum of malignant tumors; copper-free and copper-chelated forms
[10] = Nephrotoxicity in a mouse model utilizing BUN measurement; type: in vivo; details: compared with bleomycin at equitoxic doses
[11] = in vivo
[12] = in vivo; remark: listed apart in the source

SMILES | Antitumor activity Lewis lung (ED125) (Lewis lung carcinoma; ip) | Antitumor therapeutic index Lewis Lung (Lewis lung carcinoma) | Antitumor activity S180 (ED150) (Sarcoma 180; ip) | Antitumor therapeutic index S180 (Sarcoma 180) | Antitumor activity B16 (ID50) (Melanotic melanoma B16) | Antitumor therapeutic index B16 (Melanotic melanoma B16) | LD50 multiple dose (qd 1 → 9) [1] | Antibacterial potency [2] | minimum inhibitory concentration (MIC) [3] | minimum inhibitory concentration (MIC) (Sarcina lutea PCI1001) | minimum inhibitory concentration (MIC) [4] | minimum inhibitory concentration (MIC) (Mycobacterium 607) | minimum inhibitory concentration (MIC) [5] | minimum inhibitory concentration (MIC) [6] | minimum inhibitory concentration (MIC) (Proteus mirabilis A9554) | minimum inhibitory concentration (MIC) (Escherichia coli NIHJ) | Antitumor activity P388 (ED125) [7] | Antitumor therapeutic index P388 [7] | ILB activity (minimum inducible concentration) [8] | LD50 single dose [9] | also measured
Cc1c(N)nc(C(CC(N)=O)NCC(N)C(N)=O)nc1C(=O)NC(C(=O)NC(C)C(O)CC(=O)NC(C(=O)NC(OC1OC(C)C(N)C(O)C1O)C(O)c1nc(-c2nc(C(=O)NCCNCC(C)O)cs2)cs1)C(C)O)C(OC1OC(CO)C(O)C(O)C1OC1OC(CO)C(O)C(OC(N)=O)C1O)c1c[nH]cn1 (stereo not drawn) [Tallysomycin S5b] | 0.38 mg/kg/day | 121 | 0.10 mg/kg/day | 460 | 0.31 mg/kg/day | 148 | 4.0 mg/kg/day | 500 μ/mg | 0.025 | 12.5 | 25 | 0.2 | 6.3 | 0.4 | 3.1 | 0.4 | 0.66 mg/kg/day | 70 | 0.08 µg/mL | 46 mg/kg/day | 
Cc1c(N)nc([C@H](CC(N)=O)NC[C@H](N)C(N)=O)nc1C(=O)N[C@H](C(=O)N[C@H](C)[C@@H](O)CC(=O)N[C@H](C(=O)NC(O[C@@H]1O[C@@H](C)[C@@H](N)[C@@H](O)[C@H]1O)C(O)c1nc(-c2nc(C(=O)NCCCCN)cs2)cs1)[C@@H](C)O)[C@@H](O[C@@H]1O[C@@H](CO)[C@@H](O)[C@H](O)[C@@H]1O[C@H]1O[C@H](CO)[C@@H](O)[C@H](OC(N)=O)[C@@H]1O)c1cnc[nH]1 (stereo partly drawn) [Tallysomycin S10b] |  |  | 0.03 mg/kg/day | 900 | 0.59 mg/kg/day | 46 |  | 1,100 μ/mg | 0.2 | 3.1 | 12.5 | 0.2 | 6.3 | 6.3 | 3.1 | 0.8 |  |  | 0.31 µg/mL | 27 mg/kg/day | antitumor activity (malignant tumors): excellent antitumor activity against a broad spectrum of malignant tumors; toxicity to the kidney (BUN) [10]: no greater than that of bleomycin at equitoxic doses; dose response slope, lung hydroxyproline [11]: flatter than that observed with bleomycin; hydroxyproline content at high doses [11]: reduced compared to that of animals treated with bleomycin at equitoxic doses; lung hydroxyproline [11]: caused an increase in lung hydroxyproline suggesting pulmonary toxicity; undesirable side effects (e.g. nephrotoxicity) [12]: less undesirable side effects (e.g. nephrotoxicity) than the naturally-occurring tallysomycin A and B
Cc1c(N)nc(C(CC(N)=O)NCC(N)C(N)=O)nc1C(=O)NC(C(=O)NC(C)C(O)CC(=O)NC(C(=O)NC(OC1OC(C)C(N)C(O)C1O)C(O)c1nc(-c2nc(C(=O)NCCCCN)cs2)cs1)C(C)O)C(OC1OC(CO)C(O)C(O)C1OC1OC(CO)C(O)C(OC(N)=O)C1O)c1c[nH]cn1 (stereo not drawn) [Tallysomycin S10b (Cu-free)] |  |  |  |  |  |  | 4.0 mg/kg/day |  |  |  |  |  |  |  |  |  |  |  |  | 42 mg/kg/day | ED (T/C 125%) (Lewis lung carcinoma; Mus musculus, Lewis lung carcinoma, ip, 264 h, read-out: Antitumor activity Lewis lung (ED125)): 0.21 mg/kg/day; ED (T/C 150%) (Sarcoma 180; Mus musculus, ip, 216 h, read-out: Antitumor activity S180 (ED150)): 0.02 mg/kg/day; ED (T/C 125%) ([7]; Mus musculus, P388, ip, 216 h, read-out: Antitumor activity P388 (ED125)): 0.47 mg/kg/day
Cc1c(N)nc(C(CC(N)=O)NCC(N)C(N)=O)nc1C(=O)NC(C(=O)NC(C)C(O)CC(=O)NC(C(=O)NC(OC1OC(C)C(N)C(O)C1O)C(O)c1nc(-c2nc(C(=O)NCCC[S+](C)C)cs2)cs1)C(C)O)C(OC1OC(CO)C(O)C(O)C1OC1OC(CO)C(O)C(OC(N)=O)C1O)c1cnc[nH]1.Cl.Cl.Cl.[Cl-] (stereo not drawn) [Tallysomycin S2b] | 0.65 mg/kg/day | 49 | 0.12 mg/kg/day | 267 | 0.33 mg/kg/day | 97 | 2.0 mg/kg/day | 300 μ/mg | < 0.05 | 6.3 | 25 | 0.2 | 1.6 | 0.8 | 1.6 | 0.4 | 0.91 mg/kg/day | 35 | 0.63 µg/mL | 32 mg/kg/day | 
